Results on 4 compounds are retold here after patent US20220323406A1, “METHODS AND COMPOSITIONS FOR DIFFERENTIATING STEM CELLS” (Massachusetts Institute of Technology, priority 2019, published 2022).

In one assay the test system is ENR+CD organoids. Put plainly: Primary screen: ATP (CellTiter-Glo 3D, CTG) cell number/viability, 2.5-D 384-well ENR+CD organoids.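 Note: compounds given at plating and again on day 3 over a 6-day differentiation from ENR+CV stem-cell-enriched precursors, ATP measured on day 6, plate median as control.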
The test system of assay [1] is ENR+CD organoids (ISC to Paneth cell differentiation). In words: Primary screen: CCh-stimulated lysozyme secretion LYZ.S, 2.5-D 384-well ENR+CD organoid differentiation. It counts as cell-based, mouse. As to conditions: primary screen. From the text:
(§1) High-throughput screening.

Assay [2] has the same test system. Put plainly: Primary screen: basal (non-stimulated) lysozyme secretion LYZ.NS, 2.5-D 384-well ENR+CD organoid differentiation. It counts as cell-based, mouse.
Text: as §1

Where [3] appears, read: primary screen, standard z score, dose 0.08 uM.
Where [4] appears, read: primary screen, standard z score, dose 0.40 uM.
[5] abbreviates: primary screen, standard z score, dose 2.00 uM.
The mark [6] stands for this setting: primary screen, standard z score, dose 10.00 uM.
The mark [7] stands for this setting: primary screen, dose 0.08 uM, FC relative to plate median.
Where [8] appears, read: primary screen, dose 0.08 uM, standard z score.
Setting [9] is: primary screen, dose 0.40 uM, FC relative to plate median.
Where [10] appears, read: primary screen, dose 0.40 uM, standard z score.
Setting [11] is: primary screen, dose 2.00 uM, FC relative to plate median.
[12] abbreviates: primary screen, dose 2.00 uM, standard z score.
Where [13] appears, read: primary screen, dose 10.00 uM, FC relative to plate median.
Where [14] appears, read: primary screen, dose 10.00 uM, standard z score.
The mark [15] stands for this setting: dose 0.08 uM, FC relative to plate median.
[16] abbreviates: dose 0.40 uM, FC relative to plate median.
The mark [17] stands for this setting: dose 2.00 uM, FC relative to plate median.
[18] abbreviates: dose 10.00 uM, FC relative to plate median.
[19] abbreviates: primary screen; dose 0.08 uM; FC vs plate median.
The mark [20] stands for this setting: primary screen; dose 0.40 uM; FC vs plate median.
Where [21] appears, read: primary screen; dose 2.00 uM; FC vs plate median.
Where [22] appears, read: primary screen; dose 10.00 uM; FC vs plate median.

In the case of `Cn1cc(C2=C(c3cn(C4CCN(Cc5ccccn5)CC4)c4ccccc34)C(=O)NC2=O)c2ccccc21` [Enzastaurin (LY317615)], the Dose.FC.CTG is on record as 0.236 log2 fold change in the assay on ENR+CD organoids (primary screen, dose 0.08 uM); 0.475 log2 fold change in the assay with ENR+CD organoids (primary screen, dose 0.40 uM); 0.251 log2 fold change in the assay with ENR+CD organoids (primary screen, dose 2.00 uM); −0.081 log2 fold change with ENR+CD organoids (primary screen, dose 10.00 uM). For the same compound, the Z.CTG with ENR+CD organoids (setting [3]) is given as 0.565; in the assay with ENR+CD organoids (setting [4]), 1.135; in the assay with ENR+CD organoids (setting [5]), 0.600; in the assay with ENR+CD organoids (setting [6]) it was −0.194. Also, the Dose.FC.LYZ.S is listed as 0.109 log2 fold change in assay [1] (dose 0.08 uM), 0.251 log2 fold change in assay [1] (dose 0.40 uM), 0.053 log2 fold change in assay [1] (dose 2.00 uM) and −0.226 log2 fold change in assay [1] (dose 10.00 uM). In addition, the Dose.FC.LYZ.NS in assay [2] (primary screen, dose 0.08 uM) was 0.085 log2 fold change; in assay [2] (primary screen, dose 0.40 uM), 0.131 log2 fold change; in assay [2] (primary screen, dose 2.00 uM), 0.053 log2 fold change; in assay [2] (primary screen, dose 10.00 uM) it was −0.116 log2 fold change. Besides, the Z.LYZ.NS was 0.744 in assay [2] (setting [3]), 1.143 in assay [2] (setting [4]), 0.458 in assay [2] (setting [5]) and −1.012 in assay [2] (setting [6]).
Turning to `Cc1ccc(S(=O)(=O)Cc2nc(-c3ccc(C(=O)NCc4cccnc4)cc3)oc2C)cc1` [STF-118804], the Dose.FC.CTG is −0.151 log2 fold change in the assay on ENR+CD organoids (setting [7]), −1.401 log2 fold change with ENR+CD organoids (setting [9]), −0.916 log2 fold change in the assay on ENR+CD organoids (setting [11]) and −1.338 log2 fold change with ENR+CD organoids (setting [13]). In addition, the Z.CTG in the assay on ENR+CD organoids (setting [8]) is −0.360; in the assay on ENR+CD organoids (setting [10]) it was −3.346; in the assay with ENR+CD organoids (setting [12]), −2.189; in the assay with ENR+CD organoids (setting [14]), −3.195. In addition, the Dose.FC.LYZ.S in assay [1] (setting [15]) is recorded as −0.257 log2 fold change; in assay [1] (setting [16]), −0.212 log2 fold change; in assay [1] (setting [17]), −0.271 log2 fold change; in assay [1] (setting [18]) it was −0.300 log2 fold change. Also, the Dose.FC.LYZ.NS in assay [2] (setting [7]) is −0.155 log2 fold change; in assay [2] (setting [9]), −0.210 log2 fold change; in assay [2] (setting [11]), −0.172 log2 fold change; in assay [2] (setting [13]), −0.177 log2 fold change. Further, the Z.LYZ.NS in assay [2] (setting [8]) is on record as −1.349; in assay [2] (setting [10]) it was −1.824; in assay [2] (setting [12]) it was −1.502; in assay [2] (setting [14]) it was −1.541.
In the case of `COc1ccc(-c2nc3ccc(C4=NNC(=O)CC4C)cc3[nH]2)cc1` (stereo not shown) [Pimobendan], the Dose.FC.CTG with ENR+CD organoids (setting [19]) is −0.022 log2 fold change; in the assay on ENR+CD organoids (setting [20]), 0.193 log2 fold change; in the assay on ENR+CD organoids (setting [21]), 0.206 log2 fold change; in the assay on ENR+CD organoids (setting [22]) it was 0.139 log2 fold change. Moreover, the Dose.FC.LYZ.S is recorded as 0.129 log2 fold change in assay [1] (dose 0.08 uM, FC vs plate median); 0.051 log2 fold change in assay [1] (dose 0.40 uM, FC vs plate median); 0.194 log2 fold change in assay [1] (dose 2.00 uM, FC vs plate median); −0.134 log2 fold change in assay [1] (dose 10.00 uM, FC vs plate median). For the same compound, the Z.LYZ.NS in assay [2] (setting [8]) was 0.328; in assay [2] (setting [10]), 0.546; in assay [2] (setting [12]), 1.121; in assay [2] (setting [14]), −0.577. For the same compound, the Dose.FC.LYZ.NS in assay [2] (setting [19]) is listed as 0.038 log2 fold change; in assay [2] (setting [20]), 0.063 log2 fold change; in assay [2] (setting [21]) it was 0.129 log2 fold change; in assay [2] (setting [22]), −0.066 log2 fold change.
Regarding `CN1CCC(CNc2ccc3ncc(-c4cccc(OC(F)(F)F)c4)n3n2)CC1` [SGI-1776free base], the Dose.FC.CTG is recorded as 0.170 log2 fold change with ENR+CD organoids (setting [7]), 0.278 log2 fold change in the assay with ENR+CD organoids (setting [9]), 0.212 log2 fold change in the assay with ENR+CD organoids (setting [11]) and −1.033 log2 fold change in the assay with ENR+CD organoids (setting [13]). Moreover, the Z.CTG is recorded as 0.407 in the assay with ENR+CD organoids (setting [8]), 0.665 with ENR+CD organoids (setting [10]), 0.506 in the assay with ENR+CD organoids (setting [12]) and −2.468 with ENR+CD organoids (setting [14]). The Dose.FC.LYZ.S was 0.159 log2 fold change in assay [1] (setting [15]), 0.088 log2 fold change in assay [1] (setting [16]), 0.011 log2 fold change in assay [1] (setting [17]) and −0.317 log2 fold change in assay [1] (setting [18]). Besides, the Dose.FC.LYZ.NS in assay [2] (setting [7]) is listed as 0.116 log2 fold change; in assay [2] (setting [9]), 0.042 log2 fold change; in assay [2] (setting [11]), 0.012 log2 fold change; in assay [2] (setting [13]), −0.205 log2 fold change. For the same compound, the Z.LYZ.NS in assay [2] (setting [8]) was 1.013; in assay [2] (setting [10]) it was 0.362; in assay [2] (setting [12]) it was 0.108; in assay [2] (setting [14]), −1.784.
